Assay results reported in article PMC9607081 (Membranes, 2022).

Assays:
[1] = system: human GlyR α1 subunit P96 (loopA) substituted with CFP
Method: (§1) The cDNA for the human GlyR α1 subunit was in pGEMHE (ThermoFischer Scientific, Bishops Stortford, UK). Site-directed mutagenesis was performed using QuikChange (Agilent Technologies, Milton Keynes, UK) to generate the appropriate codon. For non-canonical amino acid mutants and conventional mutants generated by nonsense suppression, the site of interest was mutated to the TAG stop codon. Receptor mRNA was then prepared by in vitro runoff transcription using the Ambion T7 mMessage mMachine kit (ThermoFischer Scientific, Bishops Stortford, UK). Noncanonical amino acids were ligated to tRNA as previously described.
(§2) Stage V-VI oocytes of Xenopus laevis were harvested and injected with RNAs as described previously. For nonsense suppression experiments, each cell was injected with 50–100 ng each of receptor mRNA and tRNA charged with the appropriate Pro analogue ~48 h before recording. For wild type and conventional mutants, each cell received a single injection of 10–25 ng of receptor mRNA ~24 h before recording. Injection volumes were 50–100 nL per cell.
(§3) As a negative control for suppression experiments at each site, unligated tRNA was co-injected with mRNA in the same manner as charged tRNA. […] Pro recovery (injecting tRNA charged with Pro to regenerate a wild type channel via nonsense suppression) was used alongside Pro analogues as a positive control.
(§4) Two-electrode voltage clamping of Xenopus oocytes was performed using standard electrophysiological procedures as previously, using an OpusXpress system (Axon Instruments, Inc., Union City, CA, USA). All experiments were performed at 22–25 °C. […] The holding potential was −60 mV unless otherwise specified. […] Data were analysed using Prism (GraphPad Software Inc., San Diego, CA, USA), fitting concentration-response data to the four-parameter logistic equation. Statistical analysis was performed using ANOVA with a Dunnett’s multiple comparisons post test.

[2] = system: human GlyR α1 subunit P96 (loopA) substituted with Vah
Method: as §1, §2, §3, §4

[3] = system: human GlyR α1 subunit P230 (M1) substituted with 2MeP; conditions: Table 2, P230 2MeP, n = 4
Method: as §1, §2, §3, §4

[4] = biological target: human GlyR α1 subunit P230 (M1) substituted with Pro (Homo sapiens, UniProt P23415); conditions: Table 2, n = 4
Method: as §1, §2, §3, §4

[5] = system: human GlyR α1 subunit P30 (α1β1L) substituted with 3MeP; conditions: Table 2, P30 3MeP, n = 4
Method: as §1, §2, §3, §4

[6] = system: human GlyR α1 subunit P96 (loopA) substituted with 2MeP; conditions: Table 2, P96 2MeP, n = 4
Method: as §1, §2, §3, §4

[7] = system: human GlyR α1 subunit P30 (α1β1L) substituted with CFP
Method: as §1, §2, §3, §4

[8] = biological target: human GlyR α1 subunit P96 (loopA) substituted with Pro (Homo sapiens, UniProt P23415); conditions: Table 2, n = 5
Method: as §1, §2, §3, §4

[9] = biological target: human GlyR α1 subunit P230 (M1) substituted with Vah (Homo sapiens, UniProt P23415); conditions: Table 2, n = 4
Method: as §1, §2, §3, §4

[10] = biological target: human GlyR α1 subunit P30 (α1β1L) substituted with Pro (Homo sapiens, UniProt P23415); conditions: Table 2, n = 6
Method: as §1, §2, §3, §4

[11] = system: human GlyR α1 subunit P30 (α1β1L) substituted with Pip
Method: as §1, §2, §3, §4

[12] = system: human GlyR α1 subunit P230 (M1) substituted with TFP
Method: as §1, §2, §3, §4

[13] = system: human GlyR α1 subunit P230 (M1) substituted with Pip
Method: as §1, §2, §3, §4

[14] = system: human GlyR α1 subunit P96 (loopA) substituted with TFP
Method: as §1, §2, §3, §4

[15] = system: human GlyR α1 subunit P30 (α1β1L) substituted with 2MeP; conditions: Table 2, P30 2MeP, n = 5
Method: as §1, §2, §3, §4

[16] = system: human GlyR α1 subunit P96 (loopA) substituted with 3MeP; conditions: Table 2, P96 3MeP, n = 4
Method: as §1, §2, §3, §4

[17] = Table 2, nonsense suppression, n = 4
[18] = Table 2, nonsense suppression, n = 6

Chain of human GlyR α1 subunit P30 (α1β1L) substituted with Pro (P23415 29-457): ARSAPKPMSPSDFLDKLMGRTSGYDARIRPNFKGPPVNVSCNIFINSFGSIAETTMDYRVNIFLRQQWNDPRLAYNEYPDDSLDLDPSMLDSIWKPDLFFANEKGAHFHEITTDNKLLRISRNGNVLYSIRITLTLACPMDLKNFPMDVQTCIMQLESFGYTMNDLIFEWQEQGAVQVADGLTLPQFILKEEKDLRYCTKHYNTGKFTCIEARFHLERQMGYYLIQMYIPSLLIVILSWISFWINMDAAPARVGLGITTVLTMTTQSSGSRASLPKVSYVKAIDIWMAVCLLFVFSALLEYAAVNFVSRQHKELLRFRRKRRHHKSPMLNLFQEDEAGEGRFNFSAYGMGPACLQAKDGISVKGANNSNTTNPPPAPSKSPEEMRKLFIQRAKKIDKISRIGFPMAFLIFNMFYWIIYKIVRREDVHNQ
Chain of human GlyR α1 subunit P230 (M1) substituted with Pro (P23415 29-457): as above
Chain of human GlyR α1 subunit P96 (loopA) substituted with Pro (P23415 29-457): as above
Chain of human GlyR α1 subunit P230 (M1) substituted with Vah (P23415 29-250 limits assumed): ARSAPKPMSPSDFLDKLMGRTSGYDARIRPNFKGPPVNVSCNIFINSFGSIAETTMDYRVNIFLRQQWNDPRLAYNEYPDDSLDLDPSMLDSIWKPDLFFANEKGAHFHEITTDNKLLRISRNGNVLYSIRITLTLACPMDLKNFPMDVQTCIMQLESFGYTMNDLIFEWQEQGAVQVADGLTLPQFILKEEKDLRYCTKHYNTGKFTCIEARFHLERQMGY

NCC(=O)O [Gly, glycine]
nH ([1]; Table 2, n = 4): 3.2 ± 0.7
EC50 [1, 17]: 145 µM
pEC50 [1, 17]: 3.840 ± 0.05 M
nH ([2]; Table 2, n = 4): 1.5 ± 0.3
EC50 [2, 17]: 94 µM
pEC50 [2, 17]: 4.029 ± 0.05 M
nH [3]: 1.6 ± 0.5
EC50 ([3]; nonsense suppression): 177 µM
pEC50 ([3]; nonsense suppression): 3.751 ± 0.08 M
nH [4]: 2.5 ± 0.9
nH [5]: 3.0 ± 2.7
EC50 ([5]; nonsense suppression): 8.9 µM
pEC50 ([5]; nonsense suppression): 5.046 ± 0.05 M
nH [6]: 2.8 ± 0.5
EC50 ([6]; nonsense suppression): 254 µM
pEC50 ([6]; nonsense suppression): 3.596 ± 0.03 M
nH ([7]; Table 2, n = 6): 2.8 ± 0.7
EC50 [7, 18]: 150 µM
pEC50 [7, 18]: 3.825 ± 0.06 M
nH [8]: 2.7 ± 1.1
nH [9]: 2.6 ± 0.4
nH [10]: 2.9 ± 1.2
nH ([11]; Table 2, n = 4): 2.7 ± 0.7
EC50 [11, 17]: 36 µM
pEC50 [11, 17]: 4.439 ± 0.03 M
nH ([12]; Table 2, n = 4): 3.0 ± 1.4
EC50 [12, 17]: 125 µM
pEC50 [12, 17]: 3.904 ± 0.06 M
nH ([13]; Table 2, n = 4): 1.1 ± 0.2
EC50 [13, 17]: 68 µM
pEC50 [13, 17]: 4.166 ± 0.08 M
nH ([14]; Table 2, n = 4): 2.9 ± 0.7
EC50 [14, 17]: 127 µM
pEC50 [14, 17]: 3.898 ± 0.03 M
nH [15]: 1.6 ± 0.3
EC50 ([15]; nonsense suppression): 368 µM
pEC50 ([15]; nonsense suppression): 3.434 ± 0.06 M
nH [16]: 3.0 ± 0.2
EC50 ([16]; nonsense suppression): 514 µM
pEC50 ([16]; nonsense suppression): 3.289 ± 0.02 M
